In patent publication US10174053B2, “2 substituted cephem compounds” (Glaxo Group Limited, priority 2012, dated 2019):
Values after ≈ are worked out from the molar mass of the structure shown. Where two headings read alike, the source gives them in different places.

What was measured:
Test in all cases: In vitro antimicrobial activity, MIC by broth microdilution (CLSI)
Assay type in all cases: cell-based
E. Coli JMI1890 = conditions: Escherichia coli, read-out: Minimum Inhibitory Concentration (MIC) E. Coli JMI:1890
Description: (§1) Compound (I) of the invention was evaluated for in vitro antimicrobial activity thereof.
(§2) Measurement of Minimum Inhibitory Concentration (MIC: μg/mL) was conducted according to CLSI (Clinical and Laboratory Standards Institute) method, and the amount of bacteria for inoculation was 5×10^5 cfu/mL, and cation-adjusted Iso-Sensitest broth containing human Apo-transferrin was used as a test medium, and the experiment was conducted using broth microdilution method. The bacteria used are listed below.

A. baumannii JMI2346 = conditions: Acinetobacter baumannii
Description: as §1, §2

A. baumannii JMI7 = conditions: Acinetobacter baumannii
Description: as §1, §2

K. pneumoniae SR01358 = conditions: Klebsiella pneumoniae
Description: as §1, §2

[1] = PER-1, TEM-1, ESBL producing strain, 5×10^5 cfu/mL, cation-adjusted Iso-Sensitest broth containing human Apo-transferrin
[2] = JMI2346, OXA-51, TEM, ESBL and OXA-type carbapenemase producing strain, 5×10^5 cfu/mL, cation-adjusted Iso-Sensitest broth containing human Apo-transferrin, read-out: Minimum Inhibitory Concentration (MIC) A. baumannii JMI:2346
[3] = JMI7, PER-1, OXA-23, 51, ESBL and OXA-type carbapenemase producing strain, 5×10^5 cfu/mL, cation-adjusted Iso-Sensitest broth containing human Apo-transferrin, read-out: Minimum Inhibitory Concentration (MIC) A. baumannii JMI:7
[4] = SR01358, KPC-2, ESBL and KPC-type carbapenemase producing strain, 5×10^5 cfu/mL, cation-adjusted Iso-Sensitest broth containing human Apo-transferrin, read-out: Minimum Inhibitory Concentration (MIC) K. pneumoniae SR01358

| SMILES | MIC (E. Coli JMI1890; [1]) [µg/mL] | MIC (A. baumannii JMI2346; [2]) [µg/mL] | MIC (A. baumannii JMI7; [3]) [µg/mL] | MIC (K. pneumoniae SR01358; [4]) [µg/mL] | MIC (E. Coli JMI1890) [µg/mL] | MIC (A. baumannii JMI2346; JMI2346, read-out: Minimum Inhibitory Concentration (MIC) A. baumannii JMI:2346) [µg/mL] | MIC (A. baumannii JMI7; JMI7, read-out: Minimum Inhibitory Concentration (MIC) A. baumannii JMI:7) [µg/mL] | MIC (K. pneumoniae SR01358; SR01358, read-out: Minimum Inhibitory Concentration (MIC) K. pneumoniae SR01358) [µg/mL] |
| --- | --- | --- | --- | --- | --- | --- | --- | --- |
| C[C@@H]1S[C@@H]2[C@H](NC(=O)/C(=N\OC(C)(C)C(=O)O)c3csc(N)n3)C(=O)N2C(C(=O)[O-])=C1C[N+]12CCC(Cn3cnc4cc(O)c(O)cc4c3=O)(CC1)CC2 [Compound I-150, (4S,6R,7R)-7-((Z)-2-(2-aminothiazol-4-yl)-2-(((2-carboxypropan-2-yl)oxy)imino)acetamido)-3-((4-((6,7-dihydroxy-4-oxoquinazolin-3(4H)-yl)methyl)quinuclidin-1-ium-1-yl)methyl)-4-methyl-8-oxo-5-thia-1-azabicyclo[4.2.0]oct-2-ene-2-carboxylate] | 2 (≈ 2.55 µM) | 2 (≈ 2.55 µM) | 0.5 (≈ 0.639 µM) | ≤ 0.031 |  |  |  |  |
| CCn1cc(C(=O)N[C@H]2C[C@H]3CC[C@@H](C2)[N@+]3(C)CC2=C(C(=O)O)N3C(=O)[C@@H](NC(=O)/C(=N\OC(C)(C)C(=O)[O-])c4csc(N)n4)[C@H]3S[C@H]2C)c(=O)c2c(Cl)c(O)c(O)cc21 [Compound I-121] | 0.063 (≈ 0.071 µM) | 2 (≈ 2.25 µM) | 0.5 (≈ 0.563 µM) | ≤ 0.031 |  |  |  |  |
| C[C@@H]1S[C@@H]2[C@H](NC(=O)/C(=N\OC(C)(C)C(=O)[O-])c3csc(N)n3)C(=O)N2C(C(=O)[O-])=C1C[N+]1(C)[C@@H]2CC[C@H]1C[C@@H](NC(=O)c1cc(O)c(O)c(Cl)c1)C2.[Na+] (stereo partly shown) [Compound I-66] | 0.063 | 1 | 0.25 | ≤ 0.031 |  |  |  |  |
| C[C@@H]1S[C@@H]2[C@H](NC(=O)/C(=N\OC(C)(C)C(=O)[O-])c3csc(N)n3)C(=O)N2C(C(=O)[O-])=C1C[N+]12CCC(CC1)N(C(=O)c1cc(O)c(O)c(Cl)c1)CC2.[Na+] [Compound I-65] | 0.125 | 2 | 0.5 | ≤ 0.031 |  |  |  |  |
| C[C@@H]1S[C@@H]2[C@H](NC(=O)/C(=N\OC(C)(C)C(=O)[O-])c3csc(N)n3)C(=O)N2C(C(=O)[O-])=C1C[N+]12CCC[C@H]1CN(C(=O)C(=O)c1ccc(O)c(O)c1Cl)CC2.[Na+] (stereo partly shown) [Compound I-76] | 0.25 | 4 | 0.5 | ≤ 0.031 |  |  |  |  |
| C[C@@H]1S[C@@H]2[C@H](NC(=O)/C(=N\OC(C)(C)C(=O)[O-])c3csc(N)n3)C(=O)N2C(C(=O)O)=C1C[N+]12CCC(CNC(=O)c3ccc(O)c(O)c3Cl)(CC1)CC2 [Compound I-40] | 0.5 (≈ 0.631 µM) | 4 (≈ 5.05 µM) | 1 (≈ 1.26 µM) | 0.063 (≈ 0.0795 µM) |  |  |  |  |
| C[C@@H]1S[C@@H]2[C@H](NC(=O)/C(=N\OC(C)(C)C(=O)[O-])c3csc(N)n3)C(=O)N2C(C(=O)[O-])=C1C[N@+]12CCC[C@H]1CN(C(=O)C(=O)c1cc(O)c(O)c(Cl)c1)CC2.[Na+] [Compound I-10] | 1 | 8 | 1 | ≤ 0.031 |  |  |  |  |
| C[C@@H]1S[C@@H]2[C@H](NC(=O)/C(=N\OC(C)(C)C(=O)[O-])c3csc(N)n3)C(=O)N2C(C(=O)O)=C1C[N@+]1(C)[C@@H]2CC[C@H]1C[C@@H](NC(=O)C(=O)c1ccc(O)c(O)c1Cl)C2 [Compound I-20] |  |  |  |  | 0.063 (≈ 0.0768 µM) | 0.5 (≈ 0.61 µM) | 0.125 (≈ 0.152 µM) | ≤ 0.031 |
| C[C@@H]1S[C@@H]2[C@H](NC(=O)/C(=N\OC(C)(C)C(=O)[O-])c3csc(N)n3)C(=O)N2C(C(=O)O)=C1C[N+]12CCC(CNC(=O)/C(=N\O)c3ccc(O)c(O)c3Cl)(CC1)C2 [Compound I-102] | 0.125 (≈ 0.152 µM) | 2 (≈ 2.44 µM) | 0.5 (≈ 0.609 µM) | ≤ 0.031 |  |  |  |  |
| C[C@@H]1S[C@@H]2[C@H](NC(=O)/C(=N\OC(C)(C)C(=O)[O-])c3csc(N)n3)C(=O)N2C(C(=O)[O-])=C1C[N+]12CCC[C@H]1CN(C(=O)c1cc(O)c(O)c(F)c1)CC2.[Na+] (stereo partly shown) [Compound I-68] | 0.5 | 8 | 2 | ≤ 0.031 |  |  |  |  |
| C[C@@H]1S[C@@H]2[C@H](NC(=O)/C(=N\OC(C)(C)C(=O)[O-])c3csc(N)n3)C(=O)N2C(C(=O)O)=C1C[N+]12CCC(CN3C(=O)c4ccc(O)c(O)c4C3=O)(CC1)CC2 [Compound I-39] | 0.25 (≈ 0.319 µM) | 1 (≈ 1.28 µM) | 0.125 (≈ 0.159 µM) | 0.063 (≈ 0.0804 µM) |  |  |  |  |
| C[C@@H]1S[C@@H]2[C@H](NC(=O)/C(=N\OC(C)(C)C(=O)[O-])c3csc(N)n3)C(=O)N2C(C(=O)[O-])=C1C[N+]12CCC(CNN3C(=O)c4cc(O)c(O)c(Cl)c4C3=O)(CC1)CC2.[Na+] [Compound I-114] | 0.125 | 4 | 0.5 | ≤ 0.031 |  |  |  |  |
| C[C@@H]1S[C@@H]2[C@H](NC(=O)/C(=N\OC(C)(C)C(=O)[O-])c3csc(N)n3)C(=O)N2C(C(=O)[O-])=C1C[N+]12CCC(CC1)N(C(=O)c1cc(O)c(O)c(F)c1)CC2.[Na+] [Compound I-67] | 0.25 | 2 | 1 | ≤ 0.031 |  |  |  |  |
| C[C@@H]1S[C@@H]2[C@H](NC(=O)/C(=N\OC(C)(C)C(=O)O)c3csc(N)n3)C(=O)N2C(C(=O)[O-])=C1C[N+]12CCC(Cn3cnc4cc(O)c(O)c(Cl)c4c3=O)(CC1)C2 [Compound I-165, (4S,6R,7R)-7-((Z)-2-(2-aminothiazol-4-yl)-2-(((2-carboxypropan-2-yl)oxy)imino)acetamido)-3-((4-((5-chloro-6,7-dihydroxy-4-oxoquinazolin-3(4H)-yl)methyl)-1-azabicyclo[2.2.1]heptan-1-ium-1-yl)methyl)-4-methyl-8-oxo-5-thia-1-azabicyclo[4.2.0]oct-2-ene-2-carboxylate] | ≤ 0.031 | 1 (≈ 1.24 µM) | 0.5 (≈ 0.622 µM) | ≤ 0.031 |  |  |  |  |
| C[C@@H]1S[C@@H]2[C@H](NC(=O)/C(=N\OC(C)(C)C(=O)[O-])c3csc(N)n3)C(=O)N2C(C(=O)[O-])=C1C[N+]12CCCC(CNC(=O)c3ccc(O)c(O)c3Cl)(CCC1)C2.[Na+] [Compound I-118] | ≤ 0.031 | 0.5 | 0.25 | 0.063 |  |  |  |  |
| C[C@@H]1S[C@@H]2[C@H](NC(=O)/C(=N\OC(C)(C)C(=O)[O-])c3csc(N)n3)C(=O)N2C(C(=O)O)=C1C[N+]12CCC(CNC(=O)c3cc(O)c(O)c(Cl)c3)(CC1)C2 [Compound I-142] | 0.25 (≈ 0.321 µM) | 2 (≈ 2.57 µM) | 0.5 (≈ 0.642 µM) | ≤ 0.031 |  |  |  |  |
| C[C@@H]1S[C@@H]2[C@H](NC(=O)/C(=N\OC(C)(C)C(=O)[O-])c3csc(N)n3)C(=O)N2C(C(=O)O)=C1C[N+]12CCC(CNC(=O)c3ccc(O)c(O)c3Cl)(CC1)C2 [Compound I-100] | 0.125 (≈ 0.161 µM) | 1 (≈ 1.28 µM) | 0.5 (≈ 0.642 µM) | 0.063 (≈ 0.0809 µM) |  |  |  |  |
| C[C@@H]1S[C@@H]2[C@H](NC(=O)/C(=N\OC(C)(C)C(=O)[O-])c3csc(N)n3)C(=O)N2C(C(=O)[O-])=C1C[N+]12CCC(CC1)N(C(=O)C(=O)c1cc(O)c(O)c(Cl)c1)CC2.[Na+] [Compound I-16] | 0.5 | 8 | 1 | ≤ 0.031 |  |  |  |  |
| C[C@@H]1S[C@@H]2[C@H](NC(=O)/C(=N\OC(C)(C)C(=O)O)c3csc(N)n3)C(=O)N2C(C(=O)[O-])=C1C[N+]12CCC(Cn3cnc4cc(O)c(O)cc4c3=O)(CC1)C2 [Compound I-164, (4S,6R,7R)-7-((Z)-2-(2-aminothiazol-4-yl)-2-(((2-carboxypropan-2-yl)oxy)imino)acetamido)-3-((4-((6,7-dihydroxy-4-oxoquinazolin-3(4H)-yl)methyl)-1-azabicyclo[2.2.1]heptan-1-ium-1-yl)methyl)-4-methyl-8-oxo-5-thia-1-azabicyclo[4.2.0]oct-2-ene-2-carboxylate] | ≤ 0.031 | 2 (≈ 2.6 µM) | 0.5 (≈ 0.65 µM) | ≤ 0.031 |  |  |  |  |
| C[C@@H]1S[C@@H]2[C@H](NC(=O)/C(=N\OC(C)(C)C(=O)[O-])c3csc(N)n3)C(=O)N2C(C(=O)[O-])=C1C[N+]12CCC(CN3C(=O)c4cc(O)c(O)cc4C3=O)(CC1)C2.[Na+] [Compound I-116] | ≤ 0.031 | 1 | 0.25 | ≤ 0.031 |  |  |  |  |
| C[C@@H]1S[C@@H]2[C@H](NC(=O)/C(=N\OC(C)(C)C(=O)O)c3csc(N)n3)C(=O)N2C(C(=O)[O-])=C1C[N+]12CCC(Cn3cnc4cc(O)c(O)c(Cl)c4c3=O)(CC1)CC2 [Compound I-161, (4S,6R,7R)-7-((Z)-2-(2-aminothiazol-4-yl)-2-(((2-carboxypropan-2-yl)oxy)imino)acetamido)-3-((4-((5-chloro-6,7-dihydroxy-4-oxoquinazolin-3(4H)-yl)methyl)quinuclidin-1-ium-1-yl)methyl)-4-methyl-8-oxo-5-thia-1-azabicyclo[4.2.0]oct-2-ene-2-carboxylate] | 0.125 (≈ 0.153 µM) | 4 (≈ 4.89 µM) | 0.25 (≈ 0.306 µM) | ≤ 0.031 |  |  |  |  |
| C[C@@H]1S[C@@H]2[C@H](NC(=O)/C(=N\O[C@@H](CC(=O)[O-])C(=O)[O-])c3csc(N)n3)C(=O)N2C(C(=O)[O-])=C1C[N@+]12CCC[C@H]1CN(C(=O)C(=O)c1cc(O)c(O)c(Cl)c1)CC2.[Na+].[Na+] [Compound I-11] | 2 | 16 | 2 | 0.063 |  |  |  |  |
